Key:
[1] = post-ingestion; cited from earlier work
subjects = conditions: 20 mg escitalopram; cited from earlier work
Wistar-Kyoto (WKY) rats = experiment: Sleep-wake scoring (EEG/EMG: wake, NREM, REM) in rat model of TRD; format: in vivo; conditions: 5 and 10 mg/kg, s.c.
Excerpt: Since WKY rats show decreased sensitivity to conventional monoamine-based antidepressant treatment, they are used as a model of TRD.
Male (WKY) rats (200-250 g) were implanted with electroencephalography (EEG) and electromyography (EMG) electrodes and telemetry transmitters under general anesthesia (2-5% isoflurane in Oxygen). A telemetry transmitter (HD-502, Data Sciences International) was placed in the peritoneal cavity, and the wires of the transmitter were passed through the muscle wall and then sub-dermally to the scalp to act as EEG/EMG electrodes. Two bore holes were made in the skull (Fronto-parietal coordinates; Bregma +2 mm anterior, midline +1.0 mm lateral and Lambda 0 mm, +1.5 mm lateral). The positive EEG electrode was attached to the anterior bore hole and the negative EEG electrode to the posterior bore hole. Both electrodes were secured in place using a suitable adhesive agent (Cyanoacrylate gel, RS components). […]
Animals were maintained on a 12/12 hour light dark cycle. On study days, the animals were placed in recording boxes and EEG/EMG, locomotor activity, as well as body temperature were recorded for 0.5 hours before and 24 hours after each dosing. […]
The subsequent EEG/EMG recordings were automatically scored as wake, non-REM (NREM) sleep, or REM sleep in 10 second epochs using SleepSign (Kissei Comtec, Japan). […]

Row | SMILES | Time to peak plasma concentration [1] [h] | Frequency of common side effects: agitation or restlessness; diarrhea; difficulty sleeping; drowsiness; dry mouth; headache; nausea; sexual difficulties; dizziness; sweating (subjects) | Amount of REM sleep (Wistar-Kyoto (WKY) rats)
1 | CN(C)CCC[C@@]1(c2ccc(F)cc2)OCc2cc(C#N)ccc21 [escitalopram] | 3 to 4 | Common (~10% at 20 mg escitalopram) | –
2 | CNC1(c2ccccc2Cl)CCCCC1=O (stereo not drawn) [ketamine] | – | – | decreased the amount of REM sleep in a dose-dependent manner
